The test system of data set [1] is NRC-03-nhCoV. Briefly: microbe, parasite or virus in culture. Type of data set: cell-based, SARS-CoV-2.
Data set [2] deals with NRC-03-nhCoV. The data set can be described thus: Viral adsorption mechanism, plaque infectivity reduction assay. Type of data set: cell-based, SARS-CoV-2. To be noted: Severe acute respiratory syndrome coronavirus 2, read-out: Viral Adsorption, percent inhibition. The protocol: The viral adsorption mechanism was assayed according to a protocol by Zhang and his colleagues with minor modifications. Vero-E6 cells were cultivated in a 6-well plate (10^5 cells/mL) for 24 h at 37 °C. Each tested drug was applied in 200 µL medium without supplements and co-incubated with the cells for 2 h at 4 °C. The inocula containing the non-absorbed drug were removed by washing cells three successive times with supplement-free medium. SARS-CoV-2 virus diluted to 104 PFU/well was co-incubated with the pretreated cells for 1 h, and then 3 mL DMEM supplemented with 2% agarose were added. Plates were left to solidify and then incubated at 37 °C to allow the formation of viral plaques. The plaques were fixed and stained as described above to calculate the percentage reduction in plaque formation compared to control wells, which comprised untreated Vero-E6 cells directly infected with NRC-03-nhCoV.

A further data set is described as follows: in vitro. As to conditions: African green monkey, CC50 (Vero-E6), half maximal cytotoxic concentration, MTT assay, Vero-E6 cells.
For data set [3], the system named is SARS-CoV-2. The data set can be described thus: Plaque reduction assay, anti-SARS-CoV-2 activity. The format is cell-based. As to conditions: read-out: viral inhibition, SARS-CoV-2.
Data set [4] relates to NRC-03-nhCoV. Briefly: Virucidal mechanism, plaque infectivity reduction assay. The format is cell-based, SARS-CoV-2. As to the method: The virucidal mechanism was assayed following a previously described protocol. In a 6-well plate, Vero-E6 cells were cultivated (10^5 cells/mL) for 24 h at 37 °C and 200 µL of serum-free DMEM containing SARS-CoV-2 was added to each sample with promising inhibition. After 1 h incubation, the mixture was diluted 10-fold three times using serum-free medium, which still allowed viral particles to grow on Vero-E6 cells. Next, 100 µL of each dilution were added to the Vero-E6 cell monolayer. After 1 h contact time, a DMEM overlayer was added to the cell monolayer. Plates were left to solidify and incubated at 37 °C to allow the formation of viral plaques. The plaques were fixed and stained as described above to calculate the percentage reduction in plaque formation. This value was compared to control wells comprising cells infected with virus and not pretreated with the tested material.

The test system of data set [5] is SARS-CoV-2. To be noted: read-out: IC50 against SARS-CoV-2 (reported); cited from earlier work.
In data set [6] the test system is NRC-03-nhCoV. Briefly: Viral replication mechanism, plaque infectivity reduction assay. The format is cell-based, SARS-CoV-2. The protocol:
The impact of tested drug on viral replication was determined as previously described. Vero-E6 cells were cultivated in a 6-well plate (10^5 cell/mL) for 24 h at 37 °C. Virus was inoculated directly to the cells and incubated for 1 h at 37 °C. The inocula containing the non-adsorbed viral particles were removed by washing cells three successive times with supplement-free medium. The test compound was added in varying concentrations to infected cells for another 1 h contact time. After removing the inocula containing the tested drug, 3 mL of DMEM supplemented with 2% agarose were added to the cell monolayer. Plates were left to solidify and incubated at 37 °C until the appearance of viral plaques. Cell monolayers were fixed in 10% formalin solution for 1 h and stained with crystal violet. Control wells contained Vero-E6 cells incubated with the virus. Plaques were counted and the percentage reduction in plaque formation was compared to the control wells.

Another data set has as its system MERS-CoV. The data set can be described thus: microbe, parasite or virus in culture. The format is cell-based. To be noted: Middle East respiratory syndrome-related coronavirus, read-out: viral inhibition, MERS-CoV.

Read-outs that look alike come from different tables or passages of the source.

For the compound `CC[C@H]1OC(=O)[C@H](C)[C@@H](O[C@H]2C[C@@](C)(OC)[C@@H](O)[C@H](C)O2)[C@H](C)[C@@H](O[C@@H]2O[C@H](C)C[C@H](N(C)C)[C@H]2O)[C@](C)(O)C[C@@H](C)CN(C)[C@H](C)[C@@H](O)[C@]1(C)O` [Azithromycin], the IC50 was 320 nM with NRC-03-nhCoV [1] (Severe acute respiratory syndrome coronavirus 2, Vero C1008, 72 h, Vero-E6 cells, 72 h, crystal violet, reduction of virus-induced CPE by 50%, read-out: IC50 (NRC-03-nhCoV)); 324 nM in the data set with NRC-03-nhCoV [1] (Severe acute respiratory syndrome coronavirus 2, Vero C1008, negative log of the IC50 value against SARS-CoV-2, read-out: pIC50 (converted)); 2120 nM with SARS-CoV-2 [5]. The inhibition at 0.16 µM is 0% with NRC-03-nhCoV [2] (0.16 µM); 12% with NRC-03-nhCoV [4] (Severe acute respiratory syndrome coronavirus 2, 0.16 µM, read-out: Virucidal, percent inhibition); 0% in the data set with NRC-03-nhCoV [6] (Severe acute respiratory syndrome coronavirus 2, 0.16 µM, read-out: Viral Replication, percent inhibition). The inhibition at 0.322 µM was determined as 2% in the data set on NRC-03-nhCoV [2] (0.322 µM); 34% in the data set on NRC-03-nhCoV [4] (Severe acute respiratory syndrome coronavirus 2, 0.322 µM, read-out: Virucidal, percent inhibition); 0% with NRC-03-nhCoV [6] (Severe acute respiratory syndrome coronavirus 2, 0.322 µM, read-out: Viral Replication, percent inhibition). Moreover, the inhibition at 0.64 µM in the data set on NRC-03-nhCoV [2] (0.64 µM) turned out to be 27%; in the data set with NRC-03-nhCoV [4] (Severe acute respiratory syndrome coronavirus 2, 0.64 µM, read-out: Virucidal, percent inhibition), 51%; in the data set with NRC-03-nhCoV [6] (Severe acute respiratory syndrome coronavirus 2, 0.64 µM, read-out: Viral Replication, percent inhibition) it was 2%. The inhibition at 1.3 µM in the data set with NRC-03-nhCoV [2] (1.3 µM) is no more than 31%; in the data set with NRC-03-nhCoV [4] (Severe acute respiratory syndrome coronavirus 2, 1.3 µM, read-out: Virucidal, percent inhibition) it was 51%; in the data set with NRC-03-nhCoV [6] (Severe acute respiratory syndrome coronavirus 2, 1.3 µM, read-out: Viral Replication, percent inhibition), 4%. In the data set “in vitro”, this compound returned a CC50 of 793 µM. Besides, the inhibition at 5 µM was roughly 80% in the data set on SARS-CoV-2 [3] (Severe acute respiratory syndrome coronavirus 2, 5 µM (lowest concentration tested)) and roughly 20% in the data set with MERS-CoV. Moreover, the inhibition at 10 µM with SARS-CoV-2 [3] (Severe acute respiratory syndrome coronavirus 2, 10 µM (highest concentration tested)) was roughly 90%; in the data set with MERS-CoV, roughly 30%. The virucidal effect entry in the data set on NRC-03-nhCoV [4] (concentration not given) is “up to 51%”. For the same compound, in the data set on NRC-03-nhCoV [6] (concentration not given), the “inhibitory effect on virus replication” value is “negligible effect on viral replication”.

Values taken from publication PMC7761982, “FDA-Approved Drugs with Potent In Vitro Antiviral Activity against Severe Acute Respiratory Syndrome Coronavirus 2” (Pharmaceuticals, 2020).
